Laboratory results published in patent US10047103B2, “Imidazothiadiazole and imidazopyrazine derivatives as protease activated receptor 4 (PAR4) inhibitors for treating platelet aggregation” (BRISTOL-MYERS SQUIBB COMPANY, priority 2012, dated 2018).

Key:
[1] = test system: carotid artery thrombosis; assay: cynomolgus monkey electrolytic injury-induced carotid artery thrombosis model; format: in vivo; conditions: arterial thrombosis model in cynomolgus monkeys
[2] = test system: carotid artery thrombosis; assay: Cynomolgus monkey electrolytic injury-induced carotid artery thrombosis model; format: in vivo; conditions: oral, 1 to 2 hours before the experiment
From the text: The efficacy of the PAR4 antagonists of the present invention in preventing thrombosis can also be measured in a variety of in vivo assays. Exemplary mammals that can provide models of thrombosis and hemostasis to test the effectiveness of the PAR4 antagonists of the present invention as antithrombotic agents include, but are not limited to, guinea pigs and primates. Relevant efficacy models include, but are not limited to, electrolytic injury-induced carotid artery thrombosis, FeCl3-induced carotid artery thrombosis and arteriovenous-shunt thrombosis. […]
On the day of the study, compounds or vehicles were administered orally at 1 to 2 hours before the experiment. […] Blood pressure and heart rate were monitored to maintain normal vital signs.
Carotid blood flow was measured with an appropriately sized TRANSONIC® flow probe and a TRANSONIC® perivascular flowmeter (TS420 Model, Transonic Systems Inc., Ithaca, N.Y.). It was continuously recorded over a 90-min period to monitor thrombosis-induced occlusion. Integrated carotid blood flow was measured by the area under the flow-time curve. It was expressed as percent of total control carotid blood flow, which would result if control blood flow had been maintained continuously for 90 min. […]

human washed platelets = assay: Alpha-thrombin induced platelet aggregation assay; format: cell-based; conditions: 0.1 h, read-out: IC50 for the inhibition of platelet aggregation
Protocol: Example D is an alpha-thrombin-induced platelet aggregation assay. Alpha-thrombin activates both PAR1 and PAR4.
Human blood was collected in ACD (85 mM tri-sodium citrate, 78 mM citric acid, 110 mM D-glucose, pH 4.4) at a ratio of 1.4 ml per 10 ml blood. PRP was isolated by centrifugation at 170 g for 14 minutes and platelets were further pelleted by centrifugation at 1300 g for 6 minutes. Platelets were washed once with 10 ml ACD containing 1 mg/ml bovine serum albumin. Platelets were resuspended at ˜2.5×10^8/ml in Tyrode's Buffer (137 mM NaCl, 2 mM KCl, 1.0 mM MgCl2, 1 mM CaCl2, 5 mM glucose, 20 mM HEPES pH 7.4).
The ability of PAR4 antagonist to inhibit platelet aggregation induced by alpha-thrombin was tested using human washed platelets. […] Aggregation was initiated by addition of 1.5 nM alpha-thrombin (Haematologic Technologies, Essex Junction, Vt.) to 300 μl of washed platelets at stirring speed of 1000 rpm. […] IC50 was calculated using vehicle control as 0% inhibition.

PAR1 = PAR1 (Homo sapiens (Human), UniProt P25116); conditions: ACS patients, phase III; cited from earlier work
Sequence of PAR1 (P25116 22-425): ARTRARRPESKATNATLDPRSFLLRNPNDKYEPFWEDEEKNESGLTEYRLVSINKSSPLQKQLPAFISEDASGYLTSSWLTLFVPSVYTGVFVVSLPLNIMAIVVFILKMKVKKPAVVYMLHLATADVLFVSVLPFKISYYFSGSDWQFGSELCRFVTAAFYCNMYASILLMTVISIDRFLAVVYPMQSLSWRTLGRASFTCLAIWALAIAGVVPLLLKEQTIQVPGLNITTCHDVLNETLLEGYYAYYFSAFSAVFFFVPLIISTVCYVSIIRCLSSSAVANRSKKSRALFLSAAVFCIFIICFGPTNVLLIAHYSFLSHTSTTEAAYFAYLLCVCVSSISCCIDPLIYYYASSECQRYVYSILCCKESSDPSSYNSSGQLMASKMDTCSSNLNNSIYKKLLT

| SMILES | inhibition of thrombus formation / antithrombotic efficacy [1] | antithrombotic efficacy in electrically-induced arterial thrombus model (dose response, FIG. 1C) [2] | IC50 (human washed platelets) | cardiovascular events (PAR1) | risk of major bleeding (PAR1) |
| --- | --- | --- | --- | --- | --- |
| COc1cc(OCc2csc(-c3ccccc3)n2)c2cc(-c3cn4nc(OC)sc4n3)oc2c1 [Example 3, 2-Methoxy-6-(6-methoxy-4-((2-phenylthiazol-4-yl)methoxy)benzofuran-2-yl)imidazo[2,1-b][1,3,4]thiadiazole] | antithrombotic efficacy | in vivo antithrombotic efficacy | 5 nM |  |  |
| CCOC(=O)N[C@@H]1CC[C@@H]2[C@@H](C1)C[C@H]1C(=O)O[C@H](C)[C@H]1[C@H]2/C=C/c1ccc(-c2cccc(F)c2)cn1 [vorapaxar] |  |  |  | did not significantly reduce | significantly increased |
